Square brackets hold non-standard residues; d marks the D form. Ends that are not written are not given here.
Legend:
TLR4 [1] = target: T1, TLR4 (Mus musculus, UniProt Q9QUK6); assay: LPS-induced TNFα in immortalised murine macrophages, ELISA; assay type: cell-based; set-up: endogenous in cells; immortalised murine bone-marrow-derived macrophages; settings: peptide 1, 3, 6.25 and 12.5 μM, 20 ng/ml LPS, 6 h
T1 sequence (Q9QUK6 26-835): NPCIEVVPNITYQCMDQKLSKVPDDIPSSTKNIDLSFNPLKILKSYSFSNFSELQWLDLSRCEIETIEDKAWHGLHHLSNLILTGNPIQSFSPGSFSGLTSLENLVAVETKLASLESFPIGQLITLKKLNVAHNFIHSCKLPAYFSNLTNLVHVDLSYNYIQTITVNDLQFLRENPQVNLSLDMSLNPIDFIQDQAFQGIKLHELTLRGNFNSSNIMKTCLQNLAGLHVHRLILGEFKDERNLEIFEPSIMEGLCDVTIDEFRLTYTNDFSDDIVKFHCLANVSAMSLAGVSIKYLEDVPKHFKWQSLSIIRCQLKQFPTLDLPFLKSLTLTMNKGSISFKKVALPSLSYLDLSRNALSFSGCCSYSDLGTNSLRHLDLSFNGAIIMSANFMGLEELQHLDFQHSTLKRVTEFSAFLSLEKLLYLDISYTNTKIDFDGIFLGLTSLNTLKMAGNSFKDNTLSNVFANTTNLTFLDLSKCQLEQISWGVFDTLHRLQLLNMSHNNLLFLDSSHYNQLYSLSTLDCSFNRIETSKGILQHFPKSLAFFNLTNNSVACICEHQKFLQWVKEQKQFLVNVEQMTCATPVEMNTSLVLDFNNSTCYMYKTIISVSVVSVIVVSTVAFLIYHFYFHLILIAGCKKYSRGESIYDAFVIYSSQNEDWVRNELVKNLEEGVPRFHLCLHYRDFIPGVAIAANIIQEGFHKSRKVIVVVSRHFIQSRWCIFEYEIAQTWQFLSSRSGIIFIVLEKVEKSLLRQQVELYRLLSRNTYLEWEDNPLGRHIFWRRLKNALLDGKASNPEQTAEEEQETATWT
T1 sequence (Q9JHF9 19-160 partner): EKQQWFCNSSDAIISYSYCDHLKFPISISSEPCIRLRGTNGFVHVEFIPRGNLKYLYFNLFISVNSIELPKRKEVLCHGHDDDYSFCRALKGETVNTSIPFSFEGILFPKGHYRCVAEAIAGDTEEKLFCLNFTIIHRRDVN

TLR4 [2] = target: T1, TLR4; assay: as above; assay type: cell-based; set-up: endogenous in cells; immortalised murine bone-marrow-derived macrophages; settings: 6 h; for inhibition of LPS-induced mTNFα production: peptide 1, 5 or 25 μM 1 h before 10 ng/ml LPS
Experimental: (§1) FIGS. 14A and B are bar charts showing the comparison of the inhibitory effect of the L- and D-forms of A464 on LPS-induced TNFα in primary human and murine cells. PBMC (1×10^6 cells/ml, (A)) or immortalised murine macrophages (1.5×10^5 cells/ml, (B)) were seeded in 96 well plates 24 hours before treatment. L-form and D-form A464 peptides (with the 9R delivery peptide on the C-terminus, SEQ ID NO. 20) were added to the cells at a concentration of 1, 5 or 25 μM 1 hour before stimulating with 10 ng/ml LPS. Supernatants were collected 6 hours after stimulation and assayed for either human (A) or murine (B) TNFα production by ELISA. No peptides were added to the control wells (black bars). Data is representative of at least three experiments each performed in triplicate and is expressed as mean±s.d;
(§2) FIGS. 15A and B are bar charts showing the effect of the D-form A464 peptide with the TAT delivery sequence on LPS induced TNFα in primary human and murine cells. PBMC (A) and immortalised murine macrophages (B) were seeded in 96 well plates 24 hours before treatment. D-form of A467 (SEQ ID NO. 37) and A464 (SEQ ID NO. 36) with the TAT delivery sequence were added to the cells at a concentration of 1, 5 or 25 μM 1 hour before stimulating with 10 ng/ml LPS. The peptides were added into the unstimulated control wells at 25 μM. Supernatants were collected 6 hours after stimulation and assayed for either human (A) or murine (B) TNFα production by ELISA. No peptides were added to the control wells (black bars). Data is representative of at least three experiments each performed in triplicate and is expressed as mean±s.d;
(§3) FIGS. 16A and B are bar charts showing the effect of attaching 9R to the N-terminus of A464 on LPS-induced TNFα in primary human and murine cells. Immortalised murine macrophages (A) and PBMC (B) were seeded in 96 well plates 24 hours before treatment. L-form of A467 (SEQ ID NO. 39) and A464 (SEQ ID NO. 38) with the 9R-delivery sequence at the N-terminus were added to the cells at a concentration of 1, 5 or 25 μM 1 hour before stimulating with 10 ng/ml LPS. The peptides were added into the unstimulated control wells at […]. Supernatants were collected 6 hours after stimulation and assayed for either murine (A) or human (B) TNFα production by ELISA. No peptides were added to the control wells (black bars). Data is representative of at least three experiments each performed in triplicate and is expressed as mean±s.d;
(§4) FIGS. 17A and B are bar charts showing the effect of the D-form A464 with 9R at the N-terminus on LPS-induced TNFα in primary human and murine cells. Immortalised murine macrophages (A) and PBMC (B) were seeded in 96 well plates 24 hours before treatment. D-form of A467 (SEQ ID NO. 39) and A464 (SEQ ID NO. 38) peptides with the 9R-delivery sequence at N-terminus were added to the cells at a concentration of 1, 5 or 25 μM 1 hour before stimulating with 10 ng/ml LPS. The peptides were added into the unstimulated control wells at 25 μM. Supernatants were collected 6 hours after stimulation and assayed for either murine (A) or human (B) TNFα production by ELISA. No peptides were added to the control wells (black bars). Data is representative of at least three experiments each performed in triplicate and is expressed as mean±s.d;
FIGS. 18A and B are bar charts showing the effect of shortened A464 peptides with deletions of N- and C-terminal amino acids on LPS-induced TNFα in murine macrophages. Immortalised murine macrophages were seeded in 96 well plates (1.5×10^5 cells/ml) 24 hours before treatment. A464 peptides with a deletion of one (N-1) (SEQ ID NO. 40) or two (N-2) (SEQ ID NO. 41) amino acids from the N-terminus (A), or three (C-3) (SEQ ID NO. 42) or six (C-6) (SEQ ID NO. 43) amino acids from the C-terminus (B), were added to the cells at a concentration of 1, 5 or 25 μM 1 hour before stimulating with 10 ng/ml LPS. Peptides were added to the control wells at 25 μM. […]

TLR4 [3] = assay: LPS-induced TNFα in primary human PBMC, ELISA; assay type: cell-based; settings: 6 h; for inhibition of LPS-induced hTNFα production: peptide 1, 5 or 25 μM 1 h before 10 ng/ml LPS; for inhibitory potential compared to parental A464 (alanine scan): peptide 5 μM, 10 ng/ml LPS
Experimental: FIGS. 13A and B are bar charts showing the effect of A467 and A464 on LPS-induced TNFα production and on cell viability in primary human cells. Peripheral blood mononuclear cells (PBMCs) were seeded in 96 well plates (1 ×10^6 cells/ml) 24 hours before treatment. A467 (SEQ ID NO. 23) and A464 (SEQ ID NO. 20) were added to the cells at 1, 5 and 25 μM 1 hour before stimulating with 10 ng/ml LPS. The peptides were added into the unstimulated control wells at 25 μM. Supernatants were collected 6 hours after stimulation and assayed for TNFα production by ELISA (A). The cells were assayed for viability by the MTT assay (B). No peptides were added to the control wells (black bars). Data is representative of at least three experiments each performed in triplicate and is expressed as mean±s.d;
as §1, §2, §3
as §4, with “Data is representative of at least three experiments each performed in triplicate and is expressed as mean±s.d;” left out

cell viability = assay: MTT cell viability assay, more detailed investigation of screening hits; assay type: cell-based; settings: cell type not stated
Experimental: Cell viability was measured by assessing mitochondrial function using an MTT (3-(4,5-Dimethylthiazol-2-yl)-2,5-diphenyltetrazolium bromide) assay. Cells were seeded into 96 well plates and treated with peptides and agonists as described above in relation to the Figs. Wells containing medium only served as a blank control. To terminate treatment of cells, medium was removed and the cells were washed once with PBS. 200 μl per well of 1 mg/ml MTT in PBS was added directly to the cells and the plates were incubated at 37° C. for 14-16 hrs in the dark. MTT was then removed and 200 μl per well of dimethyl sulphoxide (DMSO) was added and cells incubated for 20 min at 37° C. in the dark, prior to absorbance being read at 595 nm on a spectrophotometer.

TLR4 [4] = target: T1, TLR4; assay: LPS-induced TNFα in RAW264.7 cells, ELISA; assay type: cell-based, murine; set-up: endogenous in cells; host or cells: RAW264.7; immortalised murine bone-marrow-derived macrophages; settings: peptide 5 or 25 μM 1 h before 10 ng/ml LPS, 6 h, A464 5 μM as positive control
Experimental: FIGS. 5A and B are bar charts showing the dose-dependent inhibitory effect of A464R on LPS-induced TNFα in murine RAW264.7 cells. A464 (SEQ ID NO. 20) was added to the cells at a concentration of 5, 20 or 50 μM 1 hour before stimulating with 100 ng/ml LPS. Supernatant was collected 24 hours after stimulation and assayed for TNFα by ELISA (A) and cells were assayed for viability by the MTT assay (B.). No peptides were added to the control wells (black bars). Data is representative of at least three experiments each performed in triplicate and is expressed as mean±s.d;
FIGS. 6A and B are bar charts showing the effect of peptides derived from A46 on LPS-induced TNFα in murine RAW264.7 cells. A46 peptides were added to the cells at a concentration of 1 or 5 μM 1 hour before stimulating with 10 ng/ml LPS. Supernatants were collected 6 hours after stimulation and assayed for TNFα by ELISA. No peptides were added into the control wells (black bars). (A) peptides A461-A467 (SEQ ID NO. 17 to 23). (B) peptides A468-A4614 (SEQ ID NO. 24 to 30) (excluding A4610 SEQ ID NO. 26 and A4612 SEQ ID NO. 28). Data is representative of at least two experiments each performed in triplicate and is expressed as mean±s.d;
FIGS. 22 A and B are bar charts showing the effect of short A467 and A464 peptides, with 9R on either N- or C-terminus, on LPS- induced TNFα production in murine RAW264.7 cells. Cells were seeded in 96 well plates (1.5×10^5 cells/ml) 24 hours before treatment. Short A467 and short A464 peptides with the 9R delivery sequence on either the C-terminus (sA464C9R) (SEQ ID NO. 56) (A) or the N-terminus (sA464N9R) (SEQ ID NO. 57) (B) were added to the cells at a concentration of 5 or 25 μM 1 hour before stimulating with 10 ng/ml LPS. Normal full length A467 (SEQ ID NO. 23) and A464 (SEQ ID NO. 20) peptides were added at a concentration of 5 μM as positive controls. Supernatants were collected 6 hours after stimulation with the agonist and assayed for TNFα, by ELISA. No peptides were added to the control wells (black bars). Data is representative of at least three experiments each performed in triplicate and is expressed as mean±s.d;
Cytokine and chemokine production from cells or mouse serum was measured by ELISA using Duoset kits from R&D systems, according to the manufacturer's instructions.

“9R-FKLI (RRRRRRRRRFKLI) [Peptide 9R-FKLI]” was tested, and the “inhibition of TLR4-induced murine TNFα by shorter versions of sA464N9R” value (TLR4 [1]) was “did not”.
In the case of “D-A464-TAT ([dK][dY][dS][dF][dK][dL][dI][dL][dA][dE][dY][dY]G[dR][dK][dK][dR][dR][dQ][dR][dR][dR])”, the “inhibition of LPS-induced mTNFα production” value (TLR4 [2]) is reported as “still inhibited, but only at 5-25 μM” and the “inhibition of LPS-induced hTNFα production” value (TLR4 [3]) is reported as “failed to inhibit LPS-induced hTNFα production at 1-25 μM”.
For DFVNFVKDMICRRRRRRRRR [Peptide A4610], the “cell viability (MTT assay)” value (cell viability) was “reduced cell viability”.
In the case of DSGLFDFVNFVRRRRRRRRR [Peptide A469], the “cell viability (MTT assay)” value (cell viability) is reported as “reduced cell viability”.
With “KYSAKLILAEY-9R (KYSAKLILAEYRRRRRRRRR) [Peptide F4A]” the “inhibitory potential compared to parental A464 (alanine scan)” value (TLR4 [3]) was “reduced inhibitory potential”.
In the case of “KYSFALILAEY-9R (KYSFALILAEYRRRRRRRRR) [Peptide K5A]”, the “inhibitory potential compared to parental A464 (alanine scan)” value (TLR4 [3]) is reported as “reduced inhibitory potential”.
With KYSFK-9R [Peptide A464C-6] the “inhibition of LPS-induced mTNFα production” value (TLR4 [2]) was “lost its ability to inhibit LPS-induced TNFα production”.
In the case of “KYSFKAILAEY-9R (KYSFKAILAEYRRRRRRRRR) [Peptide L6A]”, the “inhibition compared to A464 (alanine scan)” value (TLR4 [2]; peptide 5 μM, 10 ng/ml LPS) is reported as “reduced inhibition” and the “inhibitory potential compared to parental A464 (alanine scan)” value (TLR4 [3]) is reported as “reduced inhibitory potential”.
For “KYSFKLALAEY-9R (KYSFKLALAEYRRRRRRRRR) [Peptide I7A]”, the “inhibitory potential compared to parental A464 (alanine scan)” value (TLR4 [3]) was “reduced inhibitory potential”.
With KYSFKLILAEYRRRRRRRRR [D-A464] the “inhibition of LPS-induced mTNFα production” value (TLR4 [2]) was “complete inhibition at 1” and the “inhibition of LPS-induced hTNFα production” value (TLR4 [3]) was “only blocked TNFα secretion at 25 μM”.
For TYLYNKYSFKLRRRRRRRRR [Peptide A463], the “cell viability (MTT assay)” value (cell viability) was “reduced cell viability”.
With sA464C9R (SFKLILRRRRRRRRR) the “inhibition of LPS-induced TNFα by short peptides” value (TLR4 [4]) was “only when the delivery sequence was at the N-terminus”.
sA464N9R (RRRRRRRRRSFKLIL) was tested, and the “inhibition of LPS-induced TNFα by short peptides” value (TLR4 [4]) was “inhibited LPS-induced TNFα production as potently as A464 (SEQ ID No. 20) at 5 μM”.
